Data reported in patent US4621083A, “PAF-antagonistic diazepines” (Boehringer Ingelheim KG, priority 1984, dated 1986).

test system: PAF-induced aggregation of human thrombocytes; assay: Inhibition of PAF-induced blood platelet aggregation in vitro; assay type: cell-based; settings: Homo sapiens, read-out: PAF-Antag. IC50
Protocol: 1. Inhibition of blood platelet aggregation in vitro
The PAF-induced aggregation of human thrombocytes in vitro is used to determine PAF-antagonistic activity. To obtain thrombocyte-rich plasma (TRP), blood is taken from an uncongested vein using a plastic syringe containing 3.8% sodium citrate solution. The ratio of sodium citrate solution to blood is 1:9. After careful mixing the citrate blood is centrifuged for 20 minutes at 150 g (1200 rpm). The thrombocyte aggregation is measured using the method devised by Born and Cross (G. V. R. Born and M. J. Cross, J. Physiol. 168, 178 (1963)), by adding an aggregation initiator (PAF) to the TRP with constant stirring.
The test substance is added 2 to 3 minutes before aggregation is initiated in a volume of 10 ul. Either distilled water, ethanol and/or dimethylsulphoxide (each in suitable concentrations) can be used as solvent.
Control mixtures contain corresponding volumes of these solvents. After the initial absorption has been recorded (2 to 3 minutes) aggregation is induced with PAF (5×10^-8 M).
The maximum of the first aggregation wave is used to assess the effects of the substance. The PAF-induced maximum absorption rate (=maximum aggregation×100%) is tested at the same time in a parallel mixture (=control mixture in one of the channels of the two-channel aggregometer) as each test mixture (second channel) and is used as a 100% value.
The aggregation value attained under the effect of the test substance is given as a percentage of the control value, i.e. less than 100% in the case of an inhibition of aggregation and over 100% in the case of an increase.
Each test substance is investigated at concentrations of from 10^-3 to 10^-8 M with a random sampling of n=4 with regard to an inhibitory effect on the PAF-induced thrombocyte aggregation. Then a concentration-activity curve is drawn up using 3 concentrations and the IC50 is determined (concentration giving a 50% inhibition of aggregation).

Compound	IC50
Cc1nnc2n1-c1ccccc1C(c1ccccc1Cl)=NC2 [compound 2]	8.6 µM
CC(=O)c1cc2c(s1)-n1c(C)nnc1CN=C2c1ccccc1Cl [compound 68]	< 10 µM
COc1ccc2c(c1)C(c1ccccc1Cl)NCc1nnc(C)n1-2 (stereo not drawn) [compound 100]	< 50 µM
Cc1nnc2n1-c1sc(CS(C)(=O)=O)cc1C(c1ccccc1Cl)=NC2 [compound 47]	< 10 µM
Cc1nnc2n1-c1sc(Br)cc1C(c1ccccc1Cl)=NC2 [compound 10]	0.5 µM
CCc1cc2c(s1)-n1c(C)nnc1CN=C2c1ccccc1Cl [compound 8]	< 5 µM
Cc1nnc2n1-c1cccc(Cl)c1C(c1ccccc1Cl)=NC2 [compound 64]	280 µM
Cc1ccc2c(c1)C(c1ccccc1Cl)NCc1nnc(C)n1-2 (stereo not drawn) [compound 102]	< 5 µM
Cc1nnc2n1-c1sc3c(c1C(c1ccccc1Cl)=NC2)CCNC3 [compound 45]	< 10 µM
CCc1cc2c(s1)-n1c(C)nnc1CNC2c1ccccc1Cl (stereo not drawn) [compound 90]	< 5 µM
Cc1nnc2n1-c1cc(Cl)ccc1C(c1ccccc1Cl)=NC2 [compound 5]	300 µM
Cc1nnc2n1-c1cc(Cl)ccc1C(c1ccccc1Cl)NC2 (stereo not drawn) [compound 87]	190 µM
CSCc1cc2c(s1)-n1c(C)nnc1CN=C2c1ccccc1Cl [compound 11]	< 5 µM
Fc1ccccc1C1=NCc2cncn2-c2ccc(Cl)cc21 [compound 69]	580 µM
Cc1nnc2n1-c1ccsc1C(c1ccccc1)=NC2 [compound 23]	19.8 µM
COc1nnc2n1-c1ccc(Cl)cc1C(c1ccccc1Cl)=NC2 [compound 56]	20.6 µM
Cc1nnc2n1-c1ccc(Cl)cc1C(c1ccccc1)=NC2 [compound 3, Alprazolam, reference compound]	14 µM
Cc1nnc2n1-c1ccsc1C(c1ccccc1Cl)=NC2 [compound 24]	7.6 µM
CCOC(=O)C=C(C)c1cc2c(s1)-n1c(C)nnc1CN=C2c1ccccc1Cl [compound 83]	< 50 µM
CCOC(=O)c1ncn2c1CN=C(c1ccccc1Cl)c1cc(Br)sc1-2 [compound 52]	134 µM
COc1ccc2c(c1)C(c1ccccc1Cl)=NCc1nnc(C)n1-2 [compound 43]	33.3 µM
Cc1ccc2c(c1)C(c1ccccc1Cl)N(C)Cc1nnc(C)n1-2 (stereo not drawn) [compound 104]	81 µM
Cc1nnc2n1-c1sc(Br)cc1C(c1ccccc1Br)NC2 (stereo not drawn) [compound 91]	< 5 µM
Cc1nnc2n1-c1sc(Cl)cc1C(c1ccccc1Cl)NC2 (stereo not drawn) [compound 88]	< 5 µM
Cc1nnc2n1-c1sc(C#N)cc1C(c1ccccc1Cl)=NC2 [compound 58]	3.8 µM
NCc1nnc2n1-c1sc(Br)cc1C(c1ccccc1Cl)NC2 (stereo not drawn) [compound 93]	< 50 µM

Compound	IC50
Cc1nnc2n1-c1c(nnn1C)C(c1ccccc1Cl)=NC2 [compound 29]	950 µM
Cc1nnc2n1-c1ccccc1C(c1ccccc1)=NC2	16 µM
Cc1nnc2n1-c1sc([N+](=O)[O-])cc1C(c1ccccc1Cl)=NC2 [compound 12]	2.6 µM
Cc1nnc2n1-c1cc(F)ccc1C(c1ccccc1Cl)=NC2 [compound 72]	56 µM
Cc1ccc2c(c1)-n1c(C)nnc1CNC2c1ccccc1Cl (stereo not drawn) [compound 105]	277 µM
CCOC(=O)c1ncc2n1-c1ccc(Cl)cc1C(c1ccccc1F)=NC2 [compound 70]	730 µM
Cc1nnc2n1-c1sc(Br)cc1C(c1ccccc1Cl)N(CCO)C2 (stereo not drawn) [compound 94]	11 µM
Cc1ccccc1C1NCc2nnc(C)n2-c2ccccc21 (stereo not drawn) [compound 98]	63 µM
Cc1cc2c(cc1C)-n1c(C)nnc1CNC2c1ccccc1Cl (stereo not drawn) [compound 101]	342 µM
Cc1nnc2n1-c1sc3c(c1C(c1ccccc1Cl)=NC2)CCOC3 [compound 44]	< 5 µM
Cc1nnc2n1-c1sc(CC(=O)O)cc1C(c1ccccc1Cl)=NC2 [compound 76]	> 100 µM
Cc1nnc2n1-c1ccc(C#N)cc1C(c1ccccc1Cl)=NC2 [compound 75]	< 20 µM
Clc1ccc2c(c1)C(c1ccccc1Cl)=NCc1nncn1-2 [compound 54]	115 µM
COc1ccccc1C1NCc2nnc(C)n2-c2ccccc21 (stereo not drawn) [compound 99]	218 µM
Cc1nc2c(s1)C(c1ccccc1)=NCc1nncn1-2 [compound 26]	700 µM
Cc1nnc2n1-c1ccc(Cl)cc1C(c1ccccc1Cl)=NC2 [compound 4, Triazolam, reference compound]	9 µM
CCOC(=O)c1ncn2c1CN=C(c1ccccc1Cl)c1ccsc1-2 [compound 49]	210 µM
Cc1nnc2n1-c1sc(Br)cc1C(c1ccccc1Cl)NC2 (stereo not drawn) [compound 89]	< 10 µM
CCC1NC(c2ccccc2Cl)c2cc(Br)sc2-n2c(C)nnc21 (stereo not drawn) [compound 97]	< 100 µM
Cc1nnc2n1-c1ccc(Cl)cc1C(c1ccccc1Cl)NC2 (stereo not drawn) [compound 86]	8.3 µM
Clc1ccc2c(c1)C(c1ccccc1Cl)=NCc1cncn1-2 [compound 61]	246 µM
Cc1csc2c1-n1c(C)nnc1CN=C2c1ccccc1 [compound 22]	> 100 µM
Cc1nnc2n1-c1sc(C[S+](C)[O-])cc1C(c1ccccc1Cl)=NC2 (stereo not drawn) [compound 46]	< 10 µM
COC(=O)c1ccc2c(c1)C(c1ccccc1)=NCc1ncc(C)n1-2 [compound 78]	8 µM
Cc1nnc2n1-c1ccccc1C(c1ccccc1Cl)NC2 (stereo not drawn) [compound 85]	8.7 µM
Clc1ccc2c(c1)C(c1ccccc1)=NCc1nnc(Br)n1-2 [compound 55]	119 µM

Compound	IC50
Cc1cnc2n1-c1sc(Br)cc1C(c1ccccc1Cl)=NC2 [compound 30]	< 10 µM
CN(C)CCc1nnc2n1-c1sc(Br)cc1C(c1ccccc1Cl)N(C)C2 (stereo not drawn) [compound 96]	26 µM
Cc1cc2c(cc1C)-n1c(C)cnc1CN=C2c1ccccc1Cl [compound 48]	528 µM
Cc1nnc2n1-c1ccc([N+](=O)[O-])cc1C(c1ccccc1Cl)=NC2 [compound 62]	10 µM
CC(=CC(=O)O)c1cc2c(s1)-n1c(C)nnc1CN=C2c1ccccc1Cl [compound 59]	> 50 µM
Clc1ccc2c(c1)C(c1ccccc1Cl)=NCc1nnc(C3CC3)n1-2 [compound 63]	7 µM
Cc1nnc2n1-c1sc(Br)cc1C(c1ccccc1Cl)N(C)C2 (stereo not drawn) [compound 95]	7.4 µM
Cc1nnc2n1-c1sc(C(=O)O)cc1C(c1ccccc1Cl)=NC2 [compound 67]	> 100 µM
CC(C)(O)c1ccc2c(c1)C(c1ccccc1)=NCc1nncn1-2 [compound 81]	103 µM
CCOC(=O)c1ccn2c1CN=C(c1ccccc1Cl)c1cc(Cl)ccc1-2 [compound 60]	444 µM
Cc1nnc2n1-c1sc(Cl)cc1C(c1ccccc1Cl)=NC2 [compound 9]	< 2 µM
Clc1ccccc1C1=NCc2cncn2-c2sc(Br)cc21 [compound 53]	97.4 µM
Cc1nnc2n1-c1sc(C(C)O)cc1C(c1ccccc1Cl)=NC2 (stereo not drawn) [compound 77]	< 10 µM
Clc1ccccc1C1=NCc2cncn2-c2sccc21 [compound 50]	87 µM
Cc1ccc2c(c1)C(c1ccccc1Cl)=NCc1nnc(C)n1-2 [compound 6]	9.1 µM
Cc1cc2c(cc1C)-n1c(C)nnc1CN=C2c1ccccc1Cl [compound 65]	217 µM
Cc1nnc2n1-c1c(Cl)cccc1C(c1ccccc1Cl)=NC2 [compound 71]	300 µM
Cc1ncc2n1-c1ccc(Cl)cc1C(c1ccccc1F)=NC2 [compound 31]	690 µM
CCn1nc(C)c2c1-n1c(C)nnc1CN=C2c1ccccc1Cl [compound 27]	270 µM
Clc1ccccc1C1NCc2nncn2-c2sc(Br)cc21 (stereo not drawn) [compound 92]	140 µM
Cc1ccc2c(c1)-n1c(C)nnc1CN=C2c1ccccc1Cl [compound 73]	243 µM
CCOC(=O)c1ccc2c(c1)-n1c(C)nnc1CN=C2c1ccccc1 [compound 79]	38 µM
Cc1nnc2n1-c1sccc1C(c1ccccc1Cl)=NC2 [compound 7]	22 µM
CC(=O)c1ccc2c(c1)C(c1ccccc1)=NCc1nnc(C)n1-2 [compound 82]	63 µM
Clc1ccc2c(c1)C(c1ccccc1Cl)=NCc1nnc(Br)n1-2 [compound 57]	25 µM

same assay, conditions: table 3 (formula with R7), human thrombocyte-rich plasma, aggregation induced with PAF 5×10^-8 M, read-out: PAF-Antag. IC50

Compound	IC50
CCOC(=O)c1nc(C)n2c1CNC(c1ccccc1Cl)c1cc(Cl)ccc1-2 (stereo not drawn) [compound 103]	519 µM
